In US12485169B2, “Compounds” (GREY WOLF THERAPEUTICS LIMITED, priority 2018, dated 2025):

What follows are compounds tested against T1, Purified ERAP1 (37-941)-10His (ERAP1) (Homo sapiens, UniProt Q9NZ08) (assay: ERAP1 mediated hydrolysis of an amide substrate (10-mer inhibition assay), biochemical system). Conditions: 10-mer substrate, 23° C., 1 h, excitation 279 nm / emission 355 nm; read-out: IC50 vs Decapeptide WRVYEKC(Dnp)ALK-acid (where Dnp is Dinitrophenyl maleimide) (10-mer).
T1 construct: Purified ERAP1 (37-941)-10His (ERAP1)
T1 sequence (Q9NZ08 37-941): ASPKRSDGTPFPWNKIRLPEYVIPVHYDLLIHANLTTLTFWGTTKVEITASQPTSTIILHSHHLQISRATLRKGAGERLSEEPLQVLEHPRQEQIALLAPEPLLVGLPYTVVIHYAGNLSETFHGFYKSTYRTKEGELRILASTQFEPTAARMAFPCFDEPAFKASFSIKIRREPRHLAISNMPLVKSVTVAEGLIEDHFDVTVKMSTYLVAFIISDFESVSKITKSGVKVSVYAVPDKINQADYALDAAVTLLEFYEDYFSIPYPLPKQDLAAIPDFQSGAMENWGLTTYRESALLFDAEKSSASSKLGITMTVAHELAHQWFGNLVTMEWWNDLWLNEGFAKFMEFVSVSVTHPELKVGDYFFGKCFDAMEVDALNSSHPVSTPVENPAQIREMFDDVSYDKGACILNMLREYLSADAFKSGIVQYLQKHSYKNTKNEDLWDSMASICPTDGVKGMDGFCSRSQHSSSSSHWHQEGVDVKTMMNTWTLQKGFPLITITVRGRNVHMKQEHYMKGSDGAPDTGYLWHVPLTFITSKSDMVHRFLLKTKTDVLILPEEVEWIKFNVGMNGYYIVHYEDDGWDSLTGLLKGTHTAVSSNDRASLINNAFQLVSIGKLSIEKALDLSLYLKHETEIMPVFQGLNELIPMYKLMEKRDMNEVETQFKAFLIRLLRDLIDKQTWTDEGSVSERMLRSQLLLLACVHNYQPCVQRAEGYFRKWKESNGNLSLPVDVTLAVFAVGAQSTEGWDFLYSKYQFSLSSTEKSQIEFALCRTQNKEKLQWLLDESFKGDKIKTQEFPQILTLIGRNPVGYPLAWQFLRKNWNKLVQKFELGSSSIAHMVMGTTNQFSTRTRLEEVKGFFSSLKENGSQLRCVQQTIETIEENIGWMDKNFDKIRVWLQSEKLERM

`O=C(O)c1ccc(C2CC2)c(S(=O)(=O)Nc2cc(-n3cnnn3)ccc2N2CC(O)C2)c1` [Example 325, 4-cyclopropyl-3-(N-(2-(3-hydroxyazetidin-1-yl)-5-(tetrazol-1-yl)phenyl)sulfamoyl)benzoic acid] and `O=C(O)c1ccc(C2CC2)c(S(=O)(=O)Nc2cc(-n3cnnn3)c(F)cc2N2CCCCC2)c1` [Example 333, 4-cyclopropyl-3-(N-(4-fluoro-2-(piperidin-1-yl)-5-(tetrazol-1-yl)phenyl)sulfamoyl)benzoic acid] cannot be ordered by IC50: < 500 nM for the first, < 500 nM for the second.

`N#Cc1ccc(N2CCC(C#N)CC2)c(NS(=O)(=O)c2cc(C(=O)O)ccc2C2CC2)c1` [Example 326, 3-(N-(5-cyano-2-(4-cyanopiperidin-1-yl)phenyl)sulfamoyl)-4-cyclopropylbenzoic acid] and `N#Cc1ccc(N2CCCCC2)c(NS(=O)(=O)c2cc(C(=O)O)ccc2C2CCC2)c1` [Example 330, 3-(N-(5-cyano-2-(piperidin-1-yl)phenyl)sulfamoyl)-4-cyclobutylbenzoic acid] cannot be ordered by IC50: < 500 nM for the first, < 500 nM for the second.

`N#Cc1cc(NS(=O)(=O)c2cc(C(=O)O)ccc2C2CC2)c(N2CCCCC2)cc1Cl` [Example 327, 3-(N-(4-chloro-5-cyano-2-(piperidin-1-yl)phenyl)sulfamoyl)-4-cyclopropylbenzoic acid] and `CS(=O)(=O)c1cc(NS(=O)(=O)c2cc(C(=O)O)ccc2C2CC2)c(N2CCCCC2)cc1Cl` [Example 332, 3-(N-(4-chloro-5-(methylsulfonyl)-2-(piperidin-1-yl)phenyl)sulfamoyl)-4-cyclopropylbenzoic acid] cannot be ordered by IC50: < 500 nM for the first, < 500 nM for the second.

`C[C@@H]1C[C@H](C)CN(c2ccc(C#N)cc2NS(=O)(=O)c2cc(C(=O)O)ccc2C2CC2)C1` [Example 328, 3-(N-(5-cyano-2-(cis-3,5-dimethylpiperidin-1-yl)phenyl)sulfamoyl)-4-cyclopropylbenzoic acid] and `CC(C)(C)c1ccc(C(=O)O)cc1S(=O)(=O)Nc1cc(C#N)ccc1N1CCCCC1` [Example 337, 4-(tert-butyl)-3-(N-(5-cyano-2-(piperidin-1-yl)phenyl)sulfamoyl)benzoic acid] cannot be ordered by IC50: < 500 nM for the first, < 5000 nM for the second.

`NS(=O)(=O)c1ccc(N2CCCCC2)c(NS(=O)(=O)c2cc(C(=O)O)ccc2C2CC2)c1` [Example 329, 4-cyclopropyl-3-(N-(2-(piperidin-1-yl)-5-sulfamoylphenyl)sulfamoyl)benzoic acid] and `CS(=O)(=O)c1cc(NS(=O)(=O)c2cc(C(=O)O)ccc2C2CC2)c(N2CCCCC2)cc1F` [Example 331, 4-cyclopropyl-3-(N-(4-fluoro-5-(methylsulfonyl)-2-(piperidin-1-yl)phenyl)sulfamoyl)benzoic acid] cannot be ordered by IC50: < 500 nM for the first, < 500 nM for the second.

`O=C(O)c1ccc(C2CC2)c(S(=O)(=O)Nc2cc(-n3cnnn3)c(Cl)cc2N2CCCCC2)c1` [Example 334, 3-(N-(4-chloro-2-(piperidin-1-yl)-5-(tetrazol-1-yl)phenyl)sulfamoyl)-4-cyclopropylbenzoic acid] and `Cc1cc(C#N)cc(NS(=O)(=O)c2cc(C(=O)O)ccc2C2CC2)c1N1CCCCC1` [Example 336, 3-(N-(5-cyano-3-methyl-2-(piperidin-1-yl)phenyl)sulfamoyl)-4-cyclopropylbenzoic acid] cannot be ordered by IC50: < 500 nM for the first, < 500 nM for the second.

Going from `[2H]C1([2H])C([2H])([2H])C1([2H])c1ccc(C(=O)O)cc1S(=O)(=O)Nc1cc(C#N)ccc1N1CCCCC1` [Example 335, 3-(N-(5-cyano-2-(piperidin-1-yl)phenyl)sulfamoyl)-4-(cyclopropyl-d5)benzoic acid] to `C#Cc1ccc(C(=O)O)cc1S(=O)(=O)Nc1cc(C#N)ccc1N1CCCCC1` [Example 338, 3-(N-(5-cyano-2-(piperidin-1-yl)phenyl)sulfamoyl)-4-ethynylbenzoic acid], the IC50 rises from < 500 nM to > 5000 nM. The first is the more potent here.
